Results as given in US8377935B2, “Substituted aminopropenyl piperidine or morpholine derivatives as novel inhibitors of histone deacetylase” (Janssen Pharmaceutica N.V., priority 2005, dated 2013).

Tested on: p21 promoter
Assay: p21 induction capacity, cellular method (ZsGreen reporter in A2780 clones)
Type: cell-based, human
Conditions: A2780 clones with p21 1300 bp promoter-ZsGreen reporter, 24 hours treatment, percentage of control
Description: A first method tests the capacity of compounds to induce p21 as the consequence of HDAC inhibition at the cellular level. […] The reporter gene is a fluorescent protein and the expression of the reporter gene is measured as the amount of fluorescent light emitted (see example C.6.a.). The second method is an in vivo method wherein mice are used for screening the pharmaceutical activity of a compound. The above described stably transformed tumour cells can be administered to mice in an amount sufficient to effect production of a tumour. After the tumour cells had sufficient time to form a tumour, a potentially active compound can be administered to the animals and the effect of said compound On the tumour cells is evaluated by measuring the expression of the reporter gene. […]
The A2780 selected clones were expanded and seeded at 10000 cells per well into 96-well plates. […] The p21 promoter activation leading to ZsGreen production and thus fluorescence, was monitored by the Ascent Fluoroskan (Thermo Labsystems, Brussels, Belgium).
For each experiment, controls (containing no drug) and a blank incubation (containing no cells or drugs) were run in parallel. […] For each sample, the value for p21 induction was expressed as the percentage of the value for p21 present in the control. […]

O=C(NO)c1cnc(N2CCC(CNC(/C=C/c3ccccc3)CO)CC2)nc1 (stereo not shown) [Compound 1]
p21 induction: significant induction (Percentage induction higher than 130% was defined as significant induction)
